Experimental findings from US11117900B2 (Vertex Pharmaceuticals Incorporated, priority 2012, dated 2021) are described below.

The test relates to HCT116 colorectal cancer cells. In words: Cisplatin sensitization assay (96 h MTS cell viability).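 Also: compound concentration needed to lower the IC50 of Cisplatin alone by a set fold.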 The class given is cell-based. The conditions noted are these: Cisplatin sensitization value. How it is done: Compounds can be screened for their ability to sensitize HCT116 colorectal cancer cells to Cisplatin using a 96 h cell viability (MTS) assay. […] Compounds and Cisplatin are then both added simultaneously to the cell media in 2-fold serial dilutions from a top final concentration of 10 μM as a full matrix of concentrations in a final cell volume of 200 μl, and the cells are then incubated at 37° C. in 5% CO2. After 96 h, 40 μl of MTS reagent (Promega G358a) is added to each well and the cells are incubated for 1 h at 37° C. in 5% CO2.
Compounds with a Cisplatin sensitization value of <0.02 μM are marked with “+++.” Compounds with a Cisplatin sensitization value >0.02 μM but <0.2 μM are marked with “++.” Compounds with a Cisplatin sensitization value >0.2 μM but <5 μM are marked with “+.”
Consider `Cc1cncc(NC(=O)c2c(N)nn3cc(F)cnc23)c1-n1nccc1C` [I-N-237], for which the “Cisplatin Sensitization Assay” value was “+ (Compounds with a Cisplatin sensitization value >0.2 μM but <5 μM are marked with “+.”)”. With `CN1CCN(c2ccncc2NC(=O)c2c(N)nn3cc(Cl)cnc23)CC1(C)C` [I-N-53, 2-amino-6-chloro-N-(4-(3,3,4-trimethylpiperazin-1-yl)pyridin-3-yl)pyrazolo[1,5-a]pyrimidine-3-carboxamide] the entry was “++ (Compounds with a Cisplatin sensitization value >0.02 μM but <0.2 μM are marked with “++.”)”. In the case of `COC(=O)[C@H]1CC[C@H](Oc2ccncc2NC(=O)c2c(N)nn3cc(F)cnc23)CC1` [I-O-13, (1r,4r)-methyl 4-((3-(2-amino-6-fluoropyrazolo[1,5-a]pyrimidine-3-carboxamido)pyridin-4-yl)oxy)cyclohexanecarboxylate], the “Cisplatin Sensitization Assay” value is on record as “+++ (Compounds with a Cisplatin sensitization value of <0.02 μM are marked with “+++.”)”. In the case of `Nc1nn2cc(Cl)cnc2c1C(=O)Nc1cnccc1N1CCn2ccnc2C1` [I-N-44, 2-amino-6-chloro-N-(4-(5,6-dihydroimidazo[1,2-a]pyrazin-7(8H)-yl)pyridin-3-yl)pyrazolo[1,5-a]pyrimidine-3-carboxamide] it was “++ (Compounds with a Cisplatin sensitization value >0.02 μM but <0.2 μM are marked with “++.”)”.

For `CS(=O)(=O)C1CCN(c2c(F)cncc2NC(=O)c2c(N)nn3cc(F)cnc23)CC1` [I-N-165, 2-amino-6-fluoro-N-(5-fluoro-4-(4-(methylsulfonyl)piperidin-1-yl)pyridin-3-yl)pyrazolo[1,5-a]pyrimidine-3-carboxamide], the “Cisplatin Sensitization Assay” value is reported as “+++ (Compounds with a Cisplatin sensitization value of <0.02 μM are marked with “+++.”)”. With `Cc1nnc(N2CCN(c3ccncc3NC(=O)c3c(N)nn4cc(F)cnc34)CC2)o1` [I-N-256, 2-amino-6-fluoro-N-(4-(4-(5-methyl-1,3,4-oxadiazol-2-yl)piperazin-1-yl)pyridin-3-yl)pyrazolo[1,5-a]pyrimidine-3-carboxamide] the entry was “++ (Compounds with a Cisplatin sensitization value >0.02 μM but <0.2 μM are marked with “++.”)”. For the molecule `N#CCc1cnc2c(C(=O)Nc3cnccc3N3CCC(N)CC3)c(N)nn2c1` [I-N-2, 2-amino-N-(4-(4-aminopiperidin-1-yl)pyridin-3-yl)-6-(cyanomethyl)pyrazolo[1,5-a]pyrimidine-3-carboxamide], the “Cisplatin Sensitization Assay” value is “+++ (Compounds with a Cisplatin sensitization value of <0.02 μM are marked with “+++.”)”. In the case of `Cc1cncn1-c1ccncc1NC(=O)c1c(N)nn2cc(F)cnc12` [I-N-283, 2-amino-6-fluoro-N-(4-(5-methyl-1H-imidazol-1-yl)pyridin-3-yl)pyrazolo[1,5-a]pyrimidine-3-carboxamide], the “Cisplatin Sensitization Assay” value is “++ (Compounds with a Cisplatin sensitization value >0.02 μM but <0.2 μM are marked with “++.”)”. Consider `N#CCc1cnc2c(C(=O)Nc3cnccc3OC3COC3)c(N)nn2c1` [I-O-38, 2-amino-6-(cyanomethyl)-N-(4-(oxetan-3-yloxy)pyridin-3-yl)pyrazolo[1,5-a]pyrimidine-3-carboxamide], for which the “Cisplatin Sensitization Assay” value is listed as “+++ (Compounds with a Cisplatin sensitization value of <0.02 μM are marked with “+++.”)”.

As for `CS(=O)(=O)C1CN(C(=O)C2CCN(c3ccncc3NC(=O)c3c(N)nn4cc(F)cnc34)CC2)C1` [I-G-89, 2-amino-6-fluoro-N-(4-(4-(3-(methylsulfonyl)azetidine-1-carbonyl)piperidin-1-yl)pyridin-3-yl)pyrazolo[1,5-a]pyrimidine-3-carboxamide], the “Cisplatin Sensitization Assay” value is listed as “+ (Compounds with a Cisplatin sensitization value >0.2 μM but <5 μM are marked with “+.”)”. In the case of `Cc1ncnn1-c1c(F)cncc1NC(=O)c1c(N)nn2cc(F)cnc12` [I-N-242, 2-amino-6-fluoro-N-(5-fluoro-4-(5-methyl-1H-1,2,4-triazol-1-yl)pyridin-3-yl)pyrazolo[1,5-a]pyrimidine-3-carboxamide] it was “+ (Compounds with a Cisplatin sensitization value >0.2 μM but <5 μM are marked with “+.”)”; in that of `COC1CCN(c2ccncc2NC(=O)c2c(N)nn3cc(F)cnc23)CC1` [I-N-266, 2-amino-6-fluoro-N-(4-(4-methoxypiperidin-1-yl)pyridin-3-yl)pyrazolo[1,5-a]pyrimidine-3-carboxamide], “+++ (Compounds with a Cisplatin sensitization value of <0.02 μM are marked with “+++.”)”; in that of `Cc1nnccc1-c1ccncc1NC(=O)c1c(N)nn2cc(F)cnc12` [I-C-31, 2-amino-6-fluoro-N-(4-(3-methylpyridazin-4-yl)pyridin-3-yl)pyrazolo[1,5-a]pyrimidine-3-carboxamide], “+++ (Compounds with a Cisplatin sensitization value of <0.02 μM are marked with “+++.”)”. In the case of `Cc1nc(O[C@@H]2CCN(C)C2)ccc1-c1ccncc1NC(=O)c1c(N)nn2cc(F)cnc12` [I-C-41, (R)-2-amino-6-fluoro-N-(2-methyl-6-((1-methylpyrrolidin-3-yl)oxy)-[3,4′-bipyridin]-3′-yl)pyrazolo[1,5-a]pyrimidine-3-carboxamide], the “Cisplatin Sensitization Assay” value was “+++ (Compounds with a Cisplatin sensitization value of <0.02 μM are marked with “+++.”)”. With `CN1CCCN(c2ccncc2NC(=O)c2c(N)nn3cc(Cl)cnc23)CC1` [I-N-43, 2-amino-6-chloro-N-(4-(4-methyl-1,4-diazepan-1-yl)pyridin-3-yl)pyrazolo[1,5-a]pyrimidine-3-carboxamide] the entry was “++ (Compounds with a Cisplatin sensitization value >0.02 μM but <0.2 μM are marked with “++.”)”; with `CC(C)N1CCN(c2ccncc2NC(=O)c2c(N)nn3cc(Cl)cnc23)CC1` [I-N-39, 2-amino-6-chloro-N-(4-(4-isopropylpiperazin-1-yl)pyridin-3-yl)pyrazolo[1,5-a]pyrimidine-3-carboxamide], “++ (Compounds with a Cisplatin sensitization value >0.02 μM but <0.2 μM are marked with “++.”)”; with `CN1CCN2CCN(c3ccncc3NC(=O)c3c(N)nn4cc(F)cnc34)CC2C1=O` (centres unmarked) [I-N-233, 2-amino-6-fluoro-N-(4-(8-methyl-9-oxohexahydro-1H-pyrazino[1,2-a]pyrazin-2(6H)-yl)pyridin-3-yl)pyrazolo[1,5-a]pyrimidine-3-carboxamide], “++ (Compounds with a Cisplatin sensitization value >0.02 μM but <0.2 μM are marked with “++.”)”. In the case of `COc1cncc(NC(=O)c2c(N)nn3cc(F)cnc23)c1-c1cccnc1` [I-C-82, 2-amino-6-fluoro-N-(5′-methoxy-[3,4′-bipyridin]-3′-yl)pyrazolo[1,5-a]pyrimidine-3-carboxamide] it was “+++ (Compounds with a Cisplatin sensitization value of <0.02 μM are marked with “+++.”)”; in that of `CN1CC[C@@H](OC2CCN(c3ccncc3NC(=O)c3c(N)nn4cc(F)cnc34)CC2)C1` [I-N-131], “+++ (Compounds with a Cisplatin sensitization value of <0.02 μM are marked with “+++.”)”. Consider `CN1CCC[C@H]1C(=O)N1CCN(c2ccncc2NC(=O)c2c(N)nn3cc(F)cnc23)CC1` [I-N-198, (S)-2-amino-6-fluoro-N-(4-(4-(1-methylpyrrolidine-2-carbonyl)piperazin-1-yl)pyridin-3-yl)pyrazolo[1,5-a]pyrimidine-3-carboxamide], for which the “Cisplatin Sensitization Assay” value is on record as “++ (Compounds with a Cisplatin sensitization value >0.02 μM but <0.2 μM are marked with “++.”)”. With `CC(=O)N1CCC(c2ccncc2NC(=O)c2c(N)nn3cc(F)cnc23)CC1` [I-C-69, N-(4-(1-acetylpiperidin-4-yl)pyridin-3-yl)-2-amino-6-fluoropyrazolo[1,5-a]pyrimidine-3-carboxamide] the entry was “+++ (Compounds with a Cisplatin sensitization value of <0.02 μM are marked with “+++.”)”. With `CN1CCN(c2ccc(-c3ccncc3NC(=O)c3c(N)nn4cc(F)cnc34)cn2)CC1` [I-C-21, 2-amino-6-fluoro-N-(6-(4-methylpiperazin-1-yl)-[3,4′-bipyridin]-3′-yl)pyrazolo[1,5-a]pyrimidine-3-carboxamide], the “Cisplatin Sensitization Assay” value is “+++ (Compounds with a Cisplatin sensitization value of <0.02 μM are marked with “+++.”)”. With `CO[C@@H]1CCN(C(=O)C2CCN(c3ccncc3NC(=O)c3c(N)nn4cc(F)cnc34)CC2)C1` [I-G-93, (R)-2-amino-6-fluoro-N-(4-(4-(3-methoxypyrrolidine-1-carbonyl)piperidin-1-yl)pyridin-3-yl)pyrazolo[1,5-a]pyrimidine-3-carboxamide] the entry was “+++ (Compounds with a Cisplatin sensitization value of <0.02 μM are marked with “+++.”)”.

As to `Nc1nn2cc(F)cnc2c1C(=O)Nc1cnccc1N1CCN(S(=O)(=O)C2COC2)CC1` [I-N-195, 2-amino-6-fluoro-N-(4-(4-(oxetan-3-ylsulfonyl)piperazin-1-yl)pyridin-3-yl)pyrazolo[1,5-a]pyrimidine-3-carboxamide], the “Cisplatin Sensitization Assay” value was “+++ (Compounds with a Cisplatin sensitization value of <0.02 μM are marked with “+++.”)”. As for `Cn1ccc2cncc(NC(=O)c3c(N)nn4cc(F)cnc34)c21` [I-N-259, 2-amino-6-fluoro-N-(1-methyl-1H-pyrrolo[3,2-c]pyridin-7-yl)pyrazolo[1,5-a]pyrimidine-3-carboxamide], the “Cisplatin Sensitization Assay” value is given as “+ (Compounds with a Cisplatin sensitization value >0.2 μM but <5 μM are marked with “+.”)”. `Nc1nn2cc(Cl)cnc2c1C(=O)Nc1cnccc1N1CCN(C2COC2)CC1` [I-N-58, 2-amino-6-chloro-N-(4-(4-(oxetan-3-yl)piperazin-1-yl)pyridin-3-yl)pyrazolo[1,5-a]pyrimidine-3-carboxamide]: the “Cisplatin Sensitization Assay” value was “++ (Compounds with a Cisplatin sensitization value >0.02 μM but <0.2 μM are marked with “++.”)”.
